Data reported in patent publication US11479579B2, “Therapeutic compounds and methods” (Regents of the University of Minnesota, priority 2018, dated 2022).

Legend:
[1] = Stability in GI tract (gastric and intestinal phase); type: in vitro ADME; conditions: for Stability in the GI tract compared with p-GSH: summary in words of Table 1
Method: (§1) Compounds 4 and 9 were tested in for stability in the gastrointestinal tract and plasma.

Stability in plasma = type: in vitro ADME; conditions: for Stability in plasma compared with p-GSH: summary in words of Table 1
Method: as §1

[2] = Conversion of prodrugs into p-GSH in liver homogenate; type: in vitro ADME; conditions: liver homogenate with proteinase inhibitors; FIGS. 1 and 2
Method: The conversion of the p-GSH prodrugs, compounds 4 & 9 into p-GSH were studied in liver homogenate. Liver and brain homogenate were selected because they not only are considered as metabolic organs for p-GSH but also the target organs of p-GSH. The homogenate was prepared from fresh liver tissue and proteinase inhibitors were added in order to prevent degradation of metabolic enzymes.

[3] = tested on: transgenic Alzheimer's mice; conditions: certain earlier data; cited from earlier work
glyoxalase-I = target: T1, glyoxalase-I (Homo sapiens, UniProt Q04760); conditions: previous studies (More, Vince 2012); cited from earlier work
T1 sequence (Q04760 2-184 limits assumed): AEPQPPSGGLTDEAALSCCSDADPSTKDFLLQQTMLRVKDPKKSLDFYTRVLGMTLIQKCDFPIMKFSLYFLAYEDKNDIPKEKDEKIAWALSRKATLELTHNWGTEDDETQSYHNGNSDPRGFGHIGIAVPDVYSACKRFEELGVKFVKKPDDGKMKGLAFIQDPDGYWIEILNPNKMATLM

[4] = tested on: acetaminophen (ACP) toxicity; conditions: cited from earlier work
[5] = tested on: amyloid-β induced neurotoxicity; conditions: certain earlier data; cited from earlier work

| Stability in GI tract, Gastric Phase [1] [h] | Stability in GI tract, Intestinal Phase [1] | Stability in the GI tract compared with p-GSH [1] | Stability in plasma (Stability in plasma) [h] | Stability in plasma compared with p-GSH (Stability in plasma) | SMILES | Conversion into parent compound p-GSH [2] | Effect on cognitive decline [3] | Substrate property for glyoxalase-I (glyoxalase-I) | Rescue agent against acetaminophen (ACP) toxicity [4] | Effect on amyloid-β induced neurotoxicity [5] |
| --- | --- | --- | --- | --- | --- | --- | --- | --- | --- | --- |
| >24 | 5.1 h | more stable than p-GSH in the GI tract | 5.8 | more stable in plasma | CC(=O)SC[C@H](NC(=O)NC[C@H](N)C(=O)O)C(=O)NCC(=O)O [Compound 4] | can be converted into parent compound p-GSH | – | – | – | – |
| >24 | 1.3 h < 4 h | – | 0.0433 | – | N[C@@H](CNC(=O)N[C@@H](CS)C(=O)NCC(=O)O)C(=O)O [p-GSH] | – | prevented cognitive decline | stable substrate | useful as rescue agent | reduced the amyloid-β induced neurotoxicity |
| >24 | 7.7 h | more stable than p-GSH in the GI tract | 80 | more stable in plasma | CCOC(=O)SC[C@H](NC(=O)NC[C@H](N)C(=O)O)C(=O)NCC(=O)O [Compound 9] | can be converted into parent compound p-GSH | – | – | – | – |
